A short description of data set [1]: in vivo. On the set-up: species or system rhesus monkeys. As to conditions: female, rhesus monkey, iv, 0.05 mg, AUC Area Under the Curve after intravenous administration. Here is the method: Serum concentration time profiles after intravenous administration: Four female rhesus monkeys, #388, #391, #423, and #430, were used in a cross over design for IV and pad bioavailability experiments. From each monkey, 7 ml of blood sample was removed on the previous day of the experiment, centrifuged to separate serum, and stored at -20°C till the analysis. This serum sample was used to make blanks and standards. […] The serum was separated from blood via centrifugation and stored at -20 °C till analysis.
Analysis of serum samples. […] The aqueous extracts were analyzed by an HPLC-Fluorescence method.

The nature of data set [2]: Serum concentration time profile and pharmacokinetics after transdermal pad administration. In kind it is in vivo, rhesus monkeys. As to conditions: rhesus monkey, read-out: AUC Area Under the Curve after transdermal administration. Here is the method: Serum concentration time profiles after transdermal pad administration. After overnight fasting, on the day of the experiment, monkeys were restrained in chairs and the chest areas were clipped to remove hair, avoiding any injury to the skin tissue. Skin surface was wiped with isopropyl alcohol swab and a 4 square centimeter portion of the pad was then applied to the chest area for 24 hours and was removed as described previously. Following the pad application, blood samples were removed at 0.00, 0.5, 1.00, 1.50, 3.00, 5.00, 7.00, 12.00, 24.00, 31.00, and 48.00 hours, centrifuged to separate serum and stored at -20 °C till the analysis.
Analysis of serum samples. Serum albuterol and internal standard bamethan sulphate were extracted into chloroform to remove polar interfering substances and reextracted in to the aqueous phase to eliminate nonpolar materials. The aqueous extracts were analyzed by an HPLC-Fluorescence method.

The conditions of data set [3]: use for preterm labor; cited from earlier work.
The conditions of data set [4]: Figure 1; against prior art agents such as Azone® and isopropyl alcohol (IPA).

Results on 2 compounds are retold here after patent EP0425968A2, “Novel multiple layer transdermal drug administration system” (G.D. Searle & Co., priority 1989, dated 1991).

As for `CC(C)(C)NCC(O)c1ccc(O)c(CO)c1` (stereo not shown) [albuterol], the AUC in data set [1] worked out at 70.7 ng·h/mL; in data set [2] (Monkey #423, Transdermal dose 0.77 mg.Kg⁻¹) it was 1530 ng·h/mL; in data set [2] (topical or ocular, Monkey #388, Transdermal dose 0.38 mg.Kg⁻¹) it was 712 ng·h/mL; in data set [2] (topical or ocular, Monkey #391, Transdermal dose 0.39 mg.Kg⁻¹), 777 ng·h/mL; in data set [2] (topical or ocular, Monkey #430, Transdermal dose 0.72 mg.Kg⁻¹), 1260 ng·h/mL. Moreover, in data set [3], the “plasma levels needed for uterine relaxation” value is reported as 8 to 33 nanograms per milliliter.

Take `CCO` [ethanol]: the “effect of adjuvant agent on the flux of albuterol” value in data set [4] is reported as “most effective”.
